Source: patent US5073565A, “Tetrazole ureas and thioureas and their use as ACAT inhibitors” (Warner-Lambert Company, priority 1990, dated 1991)

Target: T1, acyl-CoA: cholesterol acyltransferase (ACAT) (Oryctolagus cuniculus, UniProt G1SFD9)
T1 construct: tissue preparation containing rabbit intestinal microsomes; from tissue; host or cells: rabbit intestinal microsomes
T1 sequence (G1SFD9 1-524): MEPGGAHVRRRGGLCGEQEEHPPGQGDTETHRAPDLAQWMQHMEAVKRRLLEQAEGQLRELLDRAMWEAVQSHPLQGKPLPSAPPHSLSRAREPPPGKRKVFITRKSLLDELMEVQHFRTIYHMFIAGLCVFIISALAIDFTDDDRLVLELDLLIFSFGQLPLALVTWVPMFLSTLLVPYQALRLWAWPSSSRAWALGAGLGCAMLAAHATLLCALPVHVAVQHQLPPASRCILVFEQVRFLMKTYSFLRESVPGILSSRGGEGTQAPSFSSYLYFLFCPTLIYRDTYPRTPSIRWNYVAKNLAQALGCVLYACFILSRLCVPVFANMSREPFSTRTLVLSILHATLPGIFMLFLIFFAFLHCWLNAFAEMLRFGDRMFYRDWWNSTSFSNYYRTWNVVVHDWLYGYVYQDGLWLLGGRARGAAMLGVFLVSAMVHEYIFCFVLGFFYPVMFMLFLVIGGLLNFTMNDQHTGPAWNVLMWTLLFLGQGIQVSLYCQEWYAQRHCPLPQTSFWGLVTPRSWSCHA
Assay: in vitro ACAT inhibition (radiolabeled cholesterol oleate formed from radiolabeled oleic acid, rabbit intestinal microsomes)
Assay type: biochemical
Conditions: read-out: IC50 (concentration of test compound required to inhibit the activity of the enzyme by 50%)
Method: The ability of representative compounds of the present invention to inhibit ACAT was measured using an in vitro test more fully described in Field, F. J. and Salone, R. G., Biochemica et Biophysica, 712:557-570 (1982). The test assesses the ability of a test compound to inhibit the acylation of cholesterol by oleic acid by measuring the amount of radiolabeled cholesterol oleate formed from radiolabeled oleic acid in a tissue preparation containing rabbit intestinal microsomes.
The data appear in Table I where they are expressed in IC50 values; i.e., the concentration of test compound required to inhibit the activity of the enzyme by 50%.

Going from `CC(C)c1cccc(C(C)C)c1NC(=O)Nc1nnn(CCCCCCCCCCCCOC2CCCCO2)n1` (stereo not shown) [1 (c)] to `CC(C)c1cccc(C(C)C)c1NC(=O)Nc1nnn(CCCCCCCCCCOC2CCCCO2)n1` (stereo not shown) [Example 7], the IC50 falls from 36 nM to 12 nM (3-fold). The second is the more potent here.

Compared with `CC(C)c1cccc(C(C)C)c1NC(=O)Nc1nnn(CCCCCCCCCCCCO)n1` [1 (d), N-[2,6-Bis(1-methylethyl)phenyl]-N'-[2-(12-hydroxy-dodecyl)-2H-tetrazol-5-yl] urea], `CC(C)c1cccc(C(C)C)c1NC(=O)Nc1nnn(CCCCCCCCCCO)n1` [Example 15, N-[2,6-Bis(1-methylethyl)phenyl]-N'-[2-(10-hydroxy-decyl)-2H-tetrazol-5-yl]urea] is 3.4-fold higher in IC50: 21 nM for the first, 72 nM for the second.

`CCCCCCCCCCCCCCn1nnc(NC(=O)Nc2c(C(C)C)cccc2C(C)C)n1` [Example 3, N-[2,6-bis(1-methylethyl)phenyl]-N'-(2-tetradecyl-2H-tetrazol-5-yl)urea] and `CCCCCCCCCCCCCn1nnc(NC(=O)Nc2c(C(C)C)cccc2C(C)C)n1` [Example 4, N-[2,6-Bis(1-methylethyl)phenyl]-N'-(2-tridecyl-2H-tetrazol-5-yl)urea] are within 1.5-fold of each other in IC50: 12 nM for the first, 9 nM for the second.

Going from `CCCCCCCCCCCCn1nnc(NC(=O)Nc2c(C(C)C)cccc2C(C)C)n1` [Example 5, N-[2,6-Bis(1-methylethyl)-phenyl]-N'-(2-dodecyl-2H-tetrazol-5-yl)urea] to `CCCCCCCCCCCn1nnc(NC(=O)Nc2c(C(C)C)cccc2C(C)C)n1` [Example 10, N-[2,6-Bis(1-methylethyl)-phenyl]-N'-(2-undecyl-2H-tetrazol-5-yl)urea], the IC50 falls from 14 nM to 9 nM (1.6-fold).

Compared with `CCCCCCCCCCCCCCCCn1nnc(NC(=O)Nc2c(C(C)C)cccc2C(C)C)n1` [Example 6, N-[2,6-Bis(1-methylethyl)-phenyl]-N'-(2-hexadecyl-2H-tetrazol-5-yl)urea], `CCCCCCCCCCn1nnc(NC(=O)Nc2c(C(C)C)cccc2C(C)C)n1` [Example 24, N-[2,6-Bis(1-methylethyl)phenyl]-N'-(2-decyl-2H-tetrazol-5-yl)urea] is 4.1-fold lower in IC50: 57 nM for the first, 14 nM for the second.

`CCCCn1nnc(NC(=O)Nc2c(C(C)C)cccc2C(C)C)n1` [Example 11, N-[2,6-Bis(1-methylethyl)-phenyl]-N'-(2-butyl-2H-tetrazol-5-yl)urea] and `CCCCCCn1nnc(NC(=O)Nc2c(C(C)C)cccc2C(C)C)n1` [Example 23, N-[2,6-Bis(1-methylethyl)phenyl]-N'-(2-hexyl-2H-tetrazol-5-yl)urea] are within 1.5-fold of each other in IC50: 92 nM for the first, 73 nM for the second.

`CC(C)c1cccc(C(C)C)c1NC(=O)Nc1nnn(Cc2ccccc2)n1` [Example 17, N-[2,6-Bis(1-methylethyl)phenyl]-N'-(2-phenylmethyl-2H-tetrazol-5-yl)urea] and `CC(C)c1cccc(C(C)C)c1NC(=O)Nc1nnnn1Cc1ccccc1` [Example 19, N-[2,6-Bis(1-methylethyl)phenyl]-N'-(1-phenylmethyl-1H-tetrazol-5-yl)urea] are within 1.5-fold of each other in IC50: 370 nM for the first, 300 nM for the second.

Going from `CCCCCCCCCCn1nnnc1NC(=O)Nc1c(C(C)C)cccc1C(C)C` [Example 20] to `CCCCCCCCn1nnc(NC(=O)Nc2c(C(C)C)cccc2C(C)C)n1` [Example 22, N-[2,6-Bis(1-methylethyl)phenyl]-N'-(2-octyl-2H-tetrazol-5-yl)urea], the IC50 falls from 180 nM to 59 nM (3.1-fold). The second is the more potent here.

`CC(C)c1cccc(C(C)C)c1NC(=O)Nc1nnnn1CCc1ccccc1` [Example 21] showed an IC50 of 327 nM.

Tested on: not listed separately
Assay: in vivo screen designated APCC (total cholesterol in rats on PCC diet)
Set-up: species or system male Sprague-Dawley rats
Conditions: rat, 50 (mg/dl), N/C means no change
Source text: In one in vivo screen designated APCC, male Sprague-Dawley rats (200 to 225 g) were randomly divided into treatment groups and dosed at 4 PM with either vehicle (CMC/Tween) or suspensions of compounds in vehicle. The normal chow diet was then replaced with the PCC diet (5.5% peanut oil, 1.5% cholesterol, and 0.5% cholic acid). The rats consumed this diet a libitum during the night and were sacrificed at 8 AM to obtain blood samples for cholesterol analysis using standard procedures. Statistical differences between mean cholesterol values for the same vehicle were determined using analysis of variance followed by Fisher's least significant test. The results of this trail for representative compounds of the present invention appear in Table II wherein percent change means the difference in total cholesterol between control, and the drug-treated animals, and the (mg/dL) is the milligrams of compound per deciliter of vehicle administered. The milligrams are reflected parenthetically.

In the case of `CC(C)c1cccc(C(C)C)c1NC(=O)Nc1nnn(Cc2ccccc2)n1` [Example 17, N-[2,6-Bis(1-methylethyl)phenyl]-N'-(2-phenylmethyl-2H-tetrazol-5-yl)urea], the “% Change (difference in total cholesterol between control and drug-treated animals)” value is reported as “N/C”.

Tested on: not given
Assay: not given
Conditions: J. Medicinal Chemistry 22, 28-32 (1979); cited from earlier work

In the case of `CCOC(=O)c1ccc(NC(=O)Nc2nnn[nH]2)cc1` [N-(4-ethoxycarbonylphenyl)-N'-tetrazol-5-yl-urea], the antileukemic data is listed as “inactive”.
